The numbers were not newly measured in US20210267955A1, “LOW DOSE ORAL PHARMACEUTICAL COMPOSITION OF PIRFENIDONE OR SALT THEREOF” (Zenvision Pharma LLP, priority 2018, published 2021), which cites them from elsewhere.

The conditions of the data set: methanol, ethyl alcohol, acetone, chloroform vs water and 1.0 N hydrochloric acid.

Take `Cc1ccc(=O)n(-c2ccccc2)c1` [Pirfenidone, 5-methyl-1-phenyl-2-(1H)-pyridone]: the “solubility (qualitative)” value was “more soluble in methanol, ethyl alcohol, acetone and chloroform than in water and 1.0 N hydrochloric acid”.
